Measured values taken from ChEMBL document CHEMBL1201862, “PubChem BioAssay data set” (2004).
Calls of active or inactive are those of the source. Unless noted, no cut-off for these calls is given here.

Tests used:
[1] = biological target: T1, Orexin/Hypocretin receptor type 1 (Homo sapiens, UniProt O43613); experiment: Homogeneous Time Resolved Fluorescence (HTRF)-based cell-based high throughput dose response assay for antagonists of the orexin 1 receptor (OX1R; HCRTR1). [Related pubchem assays (depositor defined):AID434989, AID435008, AID463079, AID485270, AID492963, AID492964, AID492965, AID493232, AID504717, AID504718]; type: functional
T1 sequence (O43613 whole entry): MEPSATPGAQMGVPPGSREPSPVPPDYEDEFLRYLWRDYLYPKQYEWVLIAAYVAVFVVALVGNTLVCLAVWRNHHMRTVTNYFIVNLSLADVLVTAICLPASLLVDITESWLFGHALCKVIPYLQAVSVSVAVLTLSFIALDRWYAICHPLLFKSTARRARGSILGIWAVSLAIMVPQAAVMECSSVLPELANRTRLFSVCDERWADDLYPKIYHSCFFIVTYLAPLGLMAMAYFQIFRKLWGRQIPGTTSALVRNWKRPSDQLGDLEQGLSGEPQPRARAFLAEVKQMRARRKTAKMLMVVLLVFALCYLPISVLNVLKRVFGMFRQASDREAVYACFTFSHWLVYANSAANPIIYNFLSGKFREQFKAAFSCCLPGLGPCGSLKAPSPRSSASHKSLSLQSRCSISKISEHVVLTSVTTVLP

Orexin receptor type 2 [2] = biological target: T2, Orexin receptor type 2 (Homo sapiens, UniProt O43614); experiment: Counterscreen assay for antagonists of the orexin 1 receptor (OX1R; HCRTR1): Homogeneous Time Resolved Fluorescence (HTRF)-based cell-based dose response assay for antagonists of the orexin 2 receptor (OX2R; HCRTR2), run by assay provider.; type: functional
T2 sequence (O43614 whole entry): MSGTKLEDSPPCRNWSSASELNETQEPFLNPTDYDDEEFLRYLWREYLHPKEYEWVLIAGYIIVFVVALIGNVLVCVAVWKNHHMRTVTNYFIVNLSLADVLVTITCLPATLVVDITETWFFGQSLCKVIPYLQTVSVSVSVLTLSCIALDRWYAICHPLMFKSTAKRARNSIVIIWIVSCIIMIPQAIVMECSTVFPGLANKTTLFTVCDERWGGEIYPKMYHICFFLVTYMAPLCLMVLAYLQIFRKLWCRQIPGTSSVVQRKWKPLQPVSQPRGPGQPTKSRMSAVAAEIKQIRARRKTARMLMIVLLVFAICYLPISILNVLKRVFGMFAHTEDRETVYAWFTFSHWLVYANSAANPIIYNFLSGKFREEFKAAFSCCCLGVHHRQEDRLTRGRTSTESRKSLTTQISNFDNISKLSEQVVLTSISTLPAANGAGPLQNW

CHO-K1 = experiment: (§1) Counterscreen for antagonists of the orexin 1 receptor (OX1R; HCRTR1): Homogeneous time resolved fluorescence (HTRF)-based cell-based dose response assay to identify antagonists of the parental CHO-K1 cell line. [Related pubchem assays (depositor defined):AID434989, AID435008, AID463079, AID485270, AID492963, AID492964, AID492965, AID493232, AID504699, AID504701]; type: functional; settings: Cricetulus griseus
[3] = as §1, with “Fluorescence-based” for “Homogeneous time resolved fluorescence (HTRF)-based”, “cell-based high throughput” for “cell-based”, “CHO” for “CHO-K1”; type: functional
[4] = biological target: T1, Orexin/Hypocretin receptor type 1; experiment: Fluorescence-based cell-based high throughput dose response assay for antagonists of the orexin 1 receptor (OX1R; HCRTR1). [Related pubchem assays (depositor defined):AID434989, AID435008, AID463079, AID485270, AID492963, AID492964, AID492965, AID493232, AID504717, AID504718]; type: functional
[5] = tested on: Streptococcus sp. 'group A'; experiment: growth inhibition of control SK(-) GAS strain, dose response, counter-screen for streptokinase expression inhibitor project, luminescence, kanamycin, BacTiterGlo, confirmation (AID 1900); type: functional, organism-based
Streptococcus = experiment: Group A Streptococcus viability loss, dose response, counter-screen for streptokinase expression inhibitor project, luminescence, BacTiterGlo (AID 1915); type: functional, organism-based;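 note: potency for reduction of bacterial viability or growth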
Orexin receptor type 2 [6] = biological target: T2, Orexin receptor type 2; experiment: Counterscreen assay for antagonists of the orexin 1 receptor (OX1R; HCRTR1): Fluorescence-based cell-based dose response assay for antagonists of the orexin 2 receptor (OX2R; HCRTR2), run by assay provider.; type: functional
[7] = biological target: Sphingosine 1-phosphate receptor 3 (Homo sapiens, UniProt Q99500); experiment: Late-stage fluorescence-based dose-response cell-based counterscreen assay to identify agonists of the Sphingosine 1-Phosphate Receptor 4 (S1P4): Sphingosine 1-Phosphate Receptor 3 (S1P3) agonist assay Set 2.; type: functional
Sequence of Sphingosine 1-phosphate receptor 3 (Q99500 whole entry): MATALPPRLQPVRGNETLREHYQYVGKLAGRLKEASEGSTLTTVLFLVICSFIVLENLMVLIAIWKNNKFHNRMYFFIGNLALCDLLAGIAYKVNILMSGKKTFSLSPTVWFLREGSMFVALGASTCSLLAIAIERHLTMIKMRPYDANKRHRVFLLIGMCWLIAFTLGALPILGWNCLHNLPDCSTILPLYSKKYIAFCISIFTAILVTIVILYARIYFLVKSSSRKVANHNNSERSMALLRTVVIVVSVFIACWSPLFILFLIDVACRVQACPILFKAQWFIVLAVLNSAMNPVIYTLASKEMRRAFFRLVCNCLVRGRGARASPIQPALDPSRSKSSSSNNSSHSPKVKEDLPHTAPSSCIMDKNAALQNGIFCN

[8] = biological target: Sphingosine 1-phosphate receptor 1 (Homo sapiens, UniProt P21453); experiment: Late-stage fluorescence-based dose-response cell-based counterscreen assay to identify agonists of the Sphingosine 1-Phosphate Receptor 4 (S1P4): Sphingosine 1-Phosphate Receptor 1 (S1P1) agonist assay Set 2.; type: functional
Sequence of Sphingosine 1-phosphate receptor 1 (P21453 whole entry): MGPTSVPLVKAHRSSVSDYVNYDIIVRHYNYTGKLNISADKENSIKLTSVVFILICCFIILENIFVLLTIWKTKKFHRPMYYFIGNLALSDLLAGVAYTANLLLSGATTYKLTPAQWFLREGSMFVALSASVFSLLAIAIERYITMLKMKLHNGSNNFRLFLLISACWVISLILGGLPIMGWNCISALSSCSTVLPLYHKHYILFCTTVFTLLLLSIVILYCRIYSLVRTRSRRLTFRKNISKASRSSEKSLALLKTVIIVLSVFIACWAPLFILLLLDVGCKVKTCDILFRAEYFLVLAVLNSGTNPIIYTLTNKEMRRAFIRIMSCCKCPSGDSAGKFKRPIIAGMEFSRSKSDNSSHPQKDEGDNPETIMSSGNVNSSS

[9] = biological target: Sphingosine 1-phosphate receptor 2 (Homo sapiens, UniProt O95136); experiment: S1P2 receptor agonists, human, late-stage follow-up, counter-screen for S1P4 agonist project, cell-based, fluorescence, set 2 (AID 504873); type: functional
Sequence of Sphingosine 1-phosphate receptor 2 (O95136 whole entry): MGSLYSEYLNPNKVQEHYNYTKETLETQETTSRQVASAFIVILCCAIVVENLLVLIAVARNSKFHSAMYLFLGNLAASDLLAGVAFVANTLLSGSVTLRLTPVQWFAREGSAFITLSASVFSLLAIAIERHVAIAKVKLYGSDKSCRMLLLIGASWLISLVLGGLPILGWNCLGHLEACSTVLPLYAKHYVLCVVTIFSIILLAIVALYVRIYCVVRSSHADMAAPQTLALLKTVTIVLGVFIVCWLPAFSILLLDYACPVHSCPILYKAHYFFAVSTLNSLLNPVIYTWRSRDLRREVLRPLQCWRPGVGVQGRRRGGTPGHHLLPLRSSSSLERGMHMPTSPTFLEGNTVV

[10] = biological target: Sphingosine 1-phosphate receptor 5 (Homo sapiens, UniProt Q9H228); experiment: S1P5 receptor agonists, human, late-stage follow-up, counter-screen for S1P4 agonist project, cell-based, fluorescence, set 2 (AID 504867); type: functional
Sequence of Sphingosine 1-phosphate receptor 5 (Q9H228 whole entry): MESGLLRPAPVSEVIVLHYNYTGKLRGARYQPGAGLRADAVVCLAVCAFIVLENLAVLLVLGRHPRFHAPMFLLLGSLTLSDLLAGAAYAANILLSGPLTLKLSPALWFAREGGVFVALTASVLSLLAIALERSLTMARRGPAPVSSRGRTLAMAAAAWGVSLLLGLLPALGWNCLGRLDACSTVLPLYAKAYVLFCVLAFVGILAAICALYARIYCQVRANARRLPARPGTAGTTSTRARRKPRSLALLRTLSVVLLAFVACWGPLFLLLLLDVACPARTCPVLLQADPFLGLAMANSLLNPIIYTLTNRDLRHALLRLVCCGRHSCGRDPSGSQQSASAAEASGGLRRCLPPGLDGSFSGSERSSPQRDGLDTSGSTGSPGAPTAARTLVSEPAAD

[11] = Vero cell cytotoxicity, dose response, cytotoxicity control for M. tuberculosis growth inhibitor project, Vero cells, purified and synthesized compounds, set 4 (AID 504854); type: functional; settings: Mycobacterium tuberculosis

For `CCSc1nnc(NC(=O)c2ccc3ccccc3n2)s1`, the IC50 [1] was 2.67 µM (active), the IC50 (Orexin receptor type 2 [2]) was > 50 µM (inactive) and the IC50 (CHO-K1) was > 66.2 µM (inactive). For the same molecule, the IC50 [3] was > 49.7 µM (inactive), the IC50 [4] was 6.86 µM (active) and the EC50 [5] was 2.08 µM (active). For the same molecule, the EC50 (Streptococcus) was 6.46 µM (active) and the IC50 (Orexin receptor type 2 [6]) was > 88.8 µM (inactive).

In the case of `CC/N=C1/S/C(=C\c2cc(C)n(-c3ccccc3)c2C)C(=O)N1CC`, the EC50 [7] is reported as > 25 µM (inactive), the EC50 [8] is reported as 0.0683 µM (active) and the EC50 [9] is reported as > 25 µM (inactive). The EC50 [10] was 0.237 µM (active).

With `CCC(Sc1nc(O)c2c(n1)CCC2)C(=O)Nc1cccc(OC)c1` (stereo not drawn) the CC50 [11] was > 100 µM (active).
